This is an account of results in ChEMBL document CHEMBL1201862, “PubChem BioAssay data set” (2004).

Among the test systems are A549; HOP-92; KM12; SNB-19; SR; PC-3; HT-29; SF-539; Hs-578T; NCI-H522; NCI/ADR-RES; LOX IMVI; U-251; M14; MDA-MB-435; HCT-15; SK-MEL-28; K562; MDA-MB-231; RXF 393.
Experiment in all cases: inhibition of tumour cell growth, NCI panel, 48 h

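How tested: cells in 96-well plates exposed to compound for 48 hours at five concentrations. GI50 is the concentration that inhibits growth by half.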 Activity calls are given as the source filed them. No stated cut-off is given here; in the data, active = GI50 up to about 1.1 µM and inactive = higher. Square brackets hold non-standard residues; d marks the D form. Peptide text beside a SMILES is read from it. * marks the point of attachment. Boc = CC(C)(C)OC(=O)*; OBn = c1ccc(CO*)cc1 Some results are limits rather than exact numbers.

For the compound `CSc1ccc(NC(=O)Nc2cc(C)ccn2)cc1`, the GI50 in the assay with A549, in the assay with HOP-92, in the assay with KM12, with SNB-19, with SR and in the assay with PC-3 was > 100 µM (inactive) in each case. For the same compound, the GI50 was > 100 µM (inactive) with HT-29; 2.36 µM (inactive) with SF-539; > 100 µM (inactive) in the assay with Hs-578T; > 100 µM (inactive) with NCI-H522; > 100 µM (inactive) in the assay with NCI/ADR-RES; > 100 µM (inactive) in the assay with LOX IMVI. Further, the GI50 was > 100 µM (inactive) with U-251; > 100 µM (inactive) in the assay on M14; > 100 µM (inactive) in the assay on MDA-MB-435; more than 100 µM in the assay with HCT-15; > 100 µM (inactive) in the assay with SK-MEL-28; > 100 µM (inactive) in the assay on K562. For the same compound, the GI50 in the assay with MDA-MB-231 and with RXF 393 was > 100 µM (inactive) throughout.
Turning to `C[C@]12CC[C@@H]3c4cc(OCC(F)(F)F)c(O)cc4C(=O)C[C@H]3[C@@H]1CC[C@@H]2O`, the GI50 with A549 was 6.98 µM (inactive); with HOP-92, 20.7 µM (inactive); with KM12, 10.6 µM (inactive); in the assay with SNB-19, 13.5 µM (inactive); with SR, 1.51 µM (inactive); with PC-3, 18.5 µM (inactive). Besides, the GI50 with HT-29 was 12.9 µM (inactive); with SF-539 it was 5.09 µM (inactive); in the assay on Hs-578T, 4.92 µM (inactive); with NCI-H522, 3.3 µM (inactive); in the assay with NCI/ADR-RES, 6.35 µM (inactive); in the assay with LOX IMVI it was 5.79 µM (inactive). Also, the GI50 with U-251 is 4.67 µM (inactive); with M14, 5.77 µM (inactive); with MDA-MB-435, 1.78 µM (inactive); in the assay on HCT-15 it was 4.18 µM; with SK-MEL-28, 7.64 µM (inactive); in the assay on K562, 2.26 µM (inactive). Further, the results for the GI50 in the assay with MDA-MB-231 and with RXF 393 were 12.9 µM (inactive) and 13 µM (inactive), respectively.
Regarding `CCC(C)(C)/C(CC(O)(C(F)(F)F)C(F)(F)F)=N\O`, the GI50 in the assay with A549, in the assay on HOP-92, with KM12, with SNB-19, with SR and in the assay on PC-3 was > 100 µM (inactive) throughout. The GI50 in the assay with HT-29, in the assay with SF-539, in the assay with Hs-578T, in the assay with NCI-H522, in the assay with NCI/ADR-RES and with LOX IMVI was > 100 µM (inactive) each time. Moreover, the GI50 in the assay on U-251 is > 100 µM (inactive); in the assay with M14, > 100 µM (inactive); in the assay on MDA-MB-435, > 100 µM (inactive); in the assay on HCT-15, more than 100 µM; in the assay on SK-MEL-28, > 100 µM (inactive); in the assay with K562 it was > 100 µM (inactive). For the same compound, the GI50 with MDA-MB-231 and in the assay with RXF 393 was > 100 µM (inactive) each time.
For `COc1ccccc1/C=C/c1nc2ccccc2o1`, the GI50 was > 10 µM (inactive) in the assay on A549; 6.19 µM (inactive) in the assay with HOP-92; > 10 µM (inactive) with KM12; > 10 µM (inactive) in the assay on SNB-19; > 10 µM (inactive) in the assay on SR; > 10 µM (inactive) in the assay on PC-3. Also, the GI50 with HT-29, in the assay on SF-539, in the assay on Hs-578T, in the assay with NCI-H522, in the assay on NCI/ADR-RES and with LOX IMVI was > 10 µM (inactive) throughout. Also, the GI50 is > 10 µM (inactive) with U-251; > 10 µM (inactive) with M14; > 10 µM (inactive) in the assay with MDA-MB-435; more than 10 µM in the assay with HCT-15; > 10 µM (inactive) in the assay with SK-MEL-28; > 10 µM (inactive) with K562. The GI50 with MDA-MB-231 and in the assay with RXF 393 was > 10 µM (inactive) each time.
Take `O=C1c2ccccc2CN1c1ccc(OCCN2CCCCC2)cc1`: the GI50 in the assay on A549, with HOP-92, in the assay with KM12, in the assay on SNB-19, with SR and in the assay with PC-3 was > 10 µM (inactive) throughout. Also, the GI50 with HT-29, in the assay with SF-539, with Hs-578T, in the assay on NCI-H522, with NCI/ADR-RES and in the assay with LOX IMVI was > 10 µM (inactive) each time. Besides, the GI50 with U-251 is > 10 µM (inactive); in the assay with M14 it was > 10 µM (inactive); in the assay with MDA-MB-435, > 10 µM (inactive); in the assay with HCT-15, more than 10 µM; with SK-MEL-28 it was > 10 µM (inactive); with K562 it was > 10 µM (inactive). The GI50 in the assay on MDA-MB-231 and with RXF 393 was > 10 µM (inactive) each time.
Turning to `CC(C)(C)C1(COC(=O)c2ccc(N)cc2)COC1`, the GI50 with A549 is 52.6 µM (inactive); with HOP-92, > 100 µM (inactive); in the assay with KM12, 58.5 µM (inactive); in the assay with SNB-19 it was > 100 µM (inactive); in the assay with SR it was 75.3 µM (inactive); with PC-3 it was 47.2 µM (inactive). Besides, the GI50 in the assay with HT-29 is 50.1 µM (inactive); in the assay on SF-539 it was 32.4 µM (inactive); with Hs-578T, > 100 µM (inactive); with NCI-H522 it was 47.6 µM (inactive); with NCI/ADR-RES, 58.3 µM (inactive); in the assay on LOX IMVI it was > 100 µM (inactive). The GI50 in the assay on U-251 was 58.1 µM (inactive); in the assay on M14 it was 61 µM (inactive); with MDA-MB-435, 53.3 µM (inactive); in the assay with HCT-15, 63.2 µM; in the assay with SK-MEL-28 it was > 100 µM (inactive); in the assay on K562 it was 46.3 µM (inactive). For the same compound, the values for the GI50 in the assay on MDA-MB-231 and with RXF 393 were 52.1 µM (inactive) and 72.4 µM (inactive), respectively.
For `Cc1nc(C)c(N2CCN(Cc3ccccc3)CC2)c(O)n1`, the GI50 in the assay on A549, with HOP-92, in the assay on KM12, with SNB-19, in the assay on SR and in the assay on PC-3 was > 100 µM (inactive) in each case. Further, the GI50 in the assay with HT-29, in the assay with SF-539, in the assay with Hs-578T, with NCI-H522, in the assay with NCI/ADR-RES and with LOX IMVI was > 100 µM (inactive) in each case. In addition, the GI50 with U-251 was > 100 µM (inactive); in the assay on M14, > 100 µM (inactive); in the assay on MDA-MB-435, > 100 µM (inactive); with HCT-15 it was more than 100 µM; in the assay with SK-MEL-28, > 100 µM (inactive); in the assay on K562, > 100 µM (inactive). For the same compound, the GI50 with MDA-MB-231 and in the assay with RXF 393 was > 100 µM (inactive) throughout.
As for `COC(=O)C(COC(=O)/C=C/c1ccc(OC(C)=O)c(OC(C)=O)c1)OC(=O)/C=C/c1ccc(OC(C)=O)c(OC(C)=O)c1` (stereo not given), the GI50 with A549 was 16.7 µM (inactive); with HOP-92, 18 µM (inactive); in the assay on KM12, 12 µM (inactive); with SNB-19 it was 8.32 µM (inactive); in the assay on SR, 3.01 µM (inactive); in the assay with PC-3, 11.1 µM (inactive). For the same compound, the GI50 in the assay on HT-29 is 6.9 µM (inactive); in the assay with SF-539 it was 10.8 µM (inactive); with Hs-578T it was 13.7 µM (inactive); in the assay on NCI-H522 it was 5.18 µM (inactive); in the assay on NCI/ADR-RES, 20 µM (inactive); with LOX IMVI, 5.16 µM (inactive). Moreover, the GI50 in the assay on U-251 was 4.62 µM (inactive); in the assay with M14, 7.8 µM (inactive); with MDA-MB-435, 11 µM (inactive); with HCT-15, 5.38 µM; in the assay on SK-MEL-28 it was 15.5 µM (inactive); in the assay with K562, 3.48 µM (inactive). The GI50 with MDA-MB-231 is 6.7 µM (inactive); in the assay on RXF 393, 12.3 µM (inactive).
As for `C[C@@H](NC(=O)CNC(=O)OC(C)(C)C)C(=O)N[C@@H](Cc1ccccc1)C(=O)OCc1ccccc1` (Boc-Gly-[dA]-Phe-OBn), the GI50 was > 100 µM (inactive) in the assay with A549; 17.8 µM (inactive) in the assay with HOP-92; > 100 µM (inactive) in the assay with KM12; > 100 µM (inactive) with SNB-19; 19.5 µM (inactive) in the assay on SR; 49 µM (inactive) in the assay with PC-3. In addition, the GI50 is 90.4 µM (inactive) with HT-29; > 100 µM (inactive) in the assay with SF-539; 22.3 µM (inactive) in the assay with Hs-578T; 26.3 µM (inactive) in the assay with NCI-H522; > 100 µM (inactive) with NCI/ADR-RES; 20.6 µM (inactive) in the assay on LOX IMVI. Further, the GI50 in the assay with U-251 was 71.8 µM (inactive); in the assay with M14, 19.8 µM (inactive); in the assay with MDA-MB-435 it was 32.4 µM (inactive); in the assay on HCT-15, more than 100 µM; with SK-MEL-28, 20.1 µM (inactive); with K562, 23.1 µM (inactive). The GI50 in the assay with MDA-MB-231 was 37.1 µM (inactive); in the assay on RXF 393, 32 µM (inactive).
Consider `C[C@]12C=CC(=O)C=C1CC[C@@H]1[C@@H]2C(=O)C[C@@]2(C)[C@H]1CC[C@]2(O)C(=O)CO` [PREDNISONE], for which the GI50 with A549, in the assay on HOP-92, in the assay with KM12, with SNB-19, in the assay on SR and with PC-3 was > 100 µM (inactive) each time. Further, the GI50 in the assay with HT-29, in the assay on SF-539, in the assay with Hs-578T, in the assay with NCI-H522, in the assay with NCI/ADR-RES and with LOX IMVI was > 100 µM (inactive) each time. Besides, the GI50 in the assay on U-251 is > 100 µM (inactive); in the assay on M14, > 100 µM (inactive); with MDA-MB-435, > 100 µM (inactive); in the assay on HCT-15, more than 100 µM; with SK-MEL-28, > 100 µM (inactive); with K562, > 100 µM (inactive). For the same compound, the GI50 in the assay with MDA-MB-231 and with RXF 393 was > 100 µM (inactive) throughout.
